Melting point data for 19 molecules are collected here from US6982348B2, “Aminoethanol derivatives” (Takeda Pharmaceutical Company Limited, priority 2001, dated 2006).

Molecule `O=C(N[C@H](Cc1ccc(C(F)(F)F)cc1)[C@@H](O)c1ccc(F)cc1)c1ccc2ccccc2c1` (racemic) [Example 63, N-((1RS,2SR)-2-(4-fluorophenyl)-2-hydroxy-1-((4-(trifluoromethyl)phenyl)methyl)ethyl)-2-naphthalenecarboxamide] registered a melting point of 174 to 175 °C.
Then `COC(=O)c1ccc([C@@H](O)[C@H](Cc2cccc(OC(F)(F)C(F)F)c2)NC(=O)OC(C)(C)C)cc1` (racemic) [Example 308, methyl 4-[(1RS,2SR)-2-[(tert-butoxycarbonyl)amino]-1-hydroxy-3-[3-(1,1,2,2-tetrafluoroethoxy)phenyl]propyl]benzoate], with 148 to 150 °C; and `O=C(NC(Cc1ccc(C(F)(F)F)cc1)C(O)c1ccc(F)cc1)c1ccc(F)cc1` (racemic) [Example 6, 4-fluoro-N-[2-(4-fluorophenyl)-2-hydroxy-1-[[4-(trifluoromethyl)phenyl]methyl]ethyl]benzamide], with 155 to 179 °C.
Then `O=C(N[C@H](Cc1ccc(C(F)(F)F)cc1)[C@@H](O)c1ccccc1)c1ccc(F)c2ccccc12` (racemic) [Example 174, 4-fluoro-N-((1RS,2SR)-2-hydroxy-2-phenyl-1-((4-(trifluoromethyl)phenyl)methyl)ethyl)-1-naphthalenecarboxamide], with 217 to 218 °C; and `CCCCc1ccc(C(=O)NC(Cc2ccc(C(F)(F)F)cc2)C(O)c2ccc(F)cc2)cc1` (racemic) [Example 13, 4-butyl-N-[2-(4-fluorophenyl)-2-hydroxy-1-[[4-(trifluoromethyl)phenyl]methyl]ethyl]benzamide], with 138 to 158 °C; and `O=C(N[C@H](Cc1ccc(C(F)(F)F)cc1)[C@@H](O)c1ccc(Cl)s1)c1cccc2c1C=CCCC2` (racemic) [Example 198, N-[(1RS,2RS)-2-(5-chloro-2-thienyl)-2-hydroxy-1-[4-(trifluoromethyl)benzyl]ethyl]-6,7-dihydro-5H-benzo[a]cycloheptene-1-carboxamide], with 184 to 185 °C.
Take `C=C(c1cccc(C[C@@H](NC(=O)c2ccc(F)c3ccccc23)[C@@H](O)c2ccc(F)cc2)c1)C(F)(F)C(F)F` (racemic) [Example 349, 4-fluoro-N-[(1RS,2SR)-2-(4-fluorophenyl)-2-hydroxy-1-[3-[1-(1,1,2,2-tetrafluoroethyl)vinyl]benzyl]ethyl]naphthalene-1-carboxamide]: the melting point lay in the range of 162 to 163 °C.
Turning to `CC1=Cc2c(cccc2C(=O)N[C@H](Cc2cccc(OC(F)(F)C(F)F)c2)[C@@H](O)c2ccc(F)cc2)CCC1` (racemic) [Example 127, N-[(1RS,2SR)-2-(4-fluorophenyl)-2-hydroxy-1-[3-(1,1,2,2-tetrafluoroethoxy)benzyl]ethyl]-8-methyl-6,7-dihydro-5H-benzo[a]cycloheptene-1-carboxamide], the melting point is 149 to 150 °C.
Then `O=C(N[C@H](Cc1ccc(C(F)(F)F)cc1)[C@@H](O)c1ccc(Cl)cc1)c1ccc(F)c2ccccc12` (racemic) [Example 194, N-[(1RS,2SR)-2-(4-chlorophenyl)-2-hydroxy-1-[4-(trifluoromethyl)benzyl]ethyl]-4-fluoronaphthalene-1-carboxamide], with 203 to 204 °C.
In turn, `CC(C)Oc1cccc(C[C@@H](NC(=O)c2ccc(F)c3ccccc23)[C@@H](O)c2ccc(F)cc2)c1` (racemic) [Example 283, 4-fluoro-N-[(1RS,2SR)-2-(4-fluorophenyl)-2-hydroxy-1-(3-isopropoxybenzyl)ethyl]-1-naphthamide] came in with a melting point of 190 to 191 °C.
Then `CC(C)C(F)(F)Cc1ccc(C[C@@H](NC(=O)c2ccc(F)c3ccccc23)[C@@H](O)c2cccc(Cl)c2)cc1` (racemic) [Example 353, N-[(1RS,2SR)-2-(3-chlorophenyl)-1-[4-(2,2-difluoro-3-methylbutyl)benzyl]-2-hydroxyethyl]-4-fluoronaphthalene-1-carboxamide], with 181 to 182 °C; and `O=C(N[C@H](Cc1ccc(C(F)(F)F)cc1)[C@@H](O)c1cccc2ccccc12)c1ccc2ccccc2c1` (racemic) [Example 187, N-((1RS,2SR)-2-hydroxy-2-(1-naphthalenyl)-1-((4-(trifluoromethyl)phenyl)methyl)ethyl)-2-naphthalenecarboxamide], with 251 to 252 °C.
Then `CC(C)(C)C(F)(F)c1ccc(C[C@@H](NC(=O)c2cccc3c(Cl)cccc23)[C@@H](O)c2cccc(Cl)c2)cc1` (racemic) [Example 381, 5-chloro-N-{(1RS,2SR)-2-(3-chlorophenyl)-1-[4-(1,1-difluoro-2,2-dimethylpropyl)benzyl]-2-hydroxyethyl}-1-naphthamide], with 99 to 101 °C; and `O=Cc1cccc(-c2ccc([C@H](O)[C@@H](Cc3cccc(OC(F)(F)C(F)F)c3)NC(=O)c3cccc4c3C=CCCC4)cc2)c1` (racemic) [Example 300, N-[(1RS,2SR)-2-(3′-formyl[1,1′-biphenyl]-4-yl)-2-hydroxy-1-[3-(1,1,2,2-tetrafluoroethoxy)benzyl]ethyl]-6,7-dihydro-5H-benzo[a]cycloheptene-1-carboxamide], with 103 to 105 °C.
For the molecule `CC(=O)OCCOc1ccc([C@@H](O)[C@H](Cc2cccc(OC(F)(F)C(F)F)c2)NC(=O)c2cccc3c2C=CCCC3)cc1` (racemic) [Example 249, (4-{(1RS,2SR)-2-[(6,7-dihydro-5H-benzo[a][7]annulen-1-ylcarbonyl)amino]-1-hydroxy-3-[3-(1,1,2,2-tetrafluoroethoxy)phenyl]propyl}phenoxy)ethyl acetate], the melting point is 125 to 126 °C.
For the molecule `O=C(N[C@H](Cc1ccc(OC(F)(F)F)cc1)[C@@H](O)c1ccc(F)cc1)c1cccc2c1C=CCCC2` (racemic) [Example 135, N-[(1RS,2SR)-2-(4-fluorophenyl)-2-hydroxy-1-[4-(trifluoromethoxy)benzyl]ethyl]-6,7-dihydro-5H-benzo[a]cycloheptene-1-carboxamide], the melting point lay within 202 to 203 °C.
Then `O=C(N[C@H](Cc1cccc(OC(F)(F)C(F)F)c1)[C@@H](O)c1ccc(C(=O)N2CCCCC2)cc1)c1cccc2c1C=CCCC2` (racemic) [Example 313, N-[(1RS,2SR)-2-hydroxy-2-[4-(piperidinocarbonyl)phenyl]-1-[3-(1,1,2,2-tetrafluoroethoxy)benzyl]ethyl]-6,7-dihydro-5H-benzo[a]cycloheptene-1-carboxamide], with 176 to 177 °C; and `O=C(N[C@H](Cc1cccc(OC(F)(F)C(F)F)c1)[C@@H](O)c1ccc(-c2cccc(CO)c2)cc1)c1cccc2c1C=CCCC2` (racemic) [Example 303, N-[(1RS,2SR)-2-[3′-(hydroxymethyl)[1,1′-biphenyl]-4-yl]-2-hydroxy-1-[3-(1,1,2,2-tetrafluoroethoxy)benzyl]ethyl]-6,7-dihydro-5H-benzo[a]cycloheptene-1-carboxamide], with 178 to 179 °C; and `CCOc1ccc2ccccc2c1C(=O)N[C@H](Cc1ccc(C(F)(F)F)cc1)[C@H](O)c1ccc(F)cc1` (racemic) [Example 25, 2-(ethyloxy)-N-((1RS,2RS)-2-(4-fluorophenyl)-2-hydroxy-1-((4-(trifluoromethyl)phenyl)methyl)ethyl)-1-naphthalenecarboxamide], with 186 to 187 °C.

The melting point is the temperature of the solid-liquid transition.
